Data as given in US5059679A, “Method of selectively sulfating peptides” (Shin-Etsu CHemical Co., Ltd., priority 1988, dated 1991).
Non-standard residues stand in square brackets, D forms with d. Residues, ends and D or L forms follow the SMILES beside them. sY = N[C@@H](Cc1ccc(OS(=O)(=O)O)cc1)C(=O)O

What was measured:
[1] = Activity compared with swine CCK-33 (test not specified); conditions: conclusion drawn through CCK-8
Procedure: (§1) Bolus injections of 1.0, 3.125, 6.25, 12.5, 25, 50, 100 and 200 picomoles per kg body weight of the synthetic hCCK-33 and CCK-8 were given through a femoral vein catheter each at an interval of 60 minutes. […] The increasing effect could be noted even with the lowest dose of 3.125 picomoles/kg and the highest effect was obtained with the dose of 200 picomoles/kg. The activity of the synthetic hCCK-33 was 92% of that of the synthetic CCK-8 on the molar basis in respect of the effects on the blood flow in the pancreas capillary vessel and the protein release from pancreas. […] Since the ratio of the activity of the unsulfated hCCK-33 to the activity of CCK-8, taken as unity on the molar basis, was 0.074 in the aforementioned assay with dogs, it was concluded that an important role is played by the sulfated sites in the molecules having influences on the in vivo activity of CCKs.

[2] = system: blood flow in the pancreas capillary vessel; assay: Bioassay in anesthetized dogs: blood flow in the pancreas capillary vessel (laser-Doppler perfusion monitor); type: in vivo, mongrel dogs
Procedure: The synthetic hCCK-33 was concurrently subjected to the bioassay with synthetic hCCK-8 to determine the activity. The bioassay was carried out by measuring the blood flow in the pancreas capillary vessel and the protein release from pancreas using a group of four mongrel dogs anesthesized with pentobarbital. The blood flow in the pancreas capillary vessel was measured using a laser-Doppler perfusion monitor and the protein concentration in the pancreas was determined according to the method of O. H. Lowry, N. J. Rosebrough, A. L. Farr and R. J. Randall, J. Biol. Chem. 193, 265 (1951). Bolus injections of 1.0, 3.125, 6.25, 12.5, 25, 50, 100 and 200 picomoles per kg body weight of the synthetic hCCK-33 and CCK-8 were given through a femoral vein catheter each at an interval of 60 minutes. […] The increasing effect could be noted even with the lowest dose of 3.125 picomoles/kg and the highest effect was obtained with the dose of 200 picomoles/kg. […] The color intensity by the ninhydrin reaction was determined using a Shimadzu Dual Wavelength TLC Scanner Model CS-900. […] The blood flow in pancreas capillary vessel was monitored using a laser-Doppler perfusion monitor (Model LD 5000 manufactured by Seattle Model Pacific Co., Wash., U.S.A.).

[3] = system: protein release from pancreas; assay: Bioassay in anesthetized dogs: protein release from pancreas (Lowry method); type: in vivo, mongrel dogs
Procedure: as §1, with “The synthetic hCCK-33 was concurrently subjected to the bioassay with synthetic hCCK-8 to determine the activity. The bioassay was carried out by measuring the blood flow in the pancreas capillary vessel and the protein release from pancreas using a group of four mongrel dogs anesthesized with pentobarbital. The blood flow in the pancreas capillary vessel was measured using a laser-Doppler perfusion monitor and the protein concentration in the pancreas was determined according to the method of O. H. Lowry, N. J. Rosebrough, A. L. Farr and R. J. Randall, J. Biol. Chem. 193, 265 (1951). Bolus” for “Bolus”, “CCKs. FIG. 6 illustrates the increase in the protein release from pancreas of an anesthetized dog in response to these 3 kinds of CCK-peptides.” for “CCKs.”

[4] = system: gastric juice, pepsin release and pancreas secretion; assay: Gastric juice, pepsin release and pancreas secretion in living rats; type: in vivo; conditions: living samples of rats
[5] = system: excised gastric tissues; assay: Stimulation of pepsinogen secretion from excised gastric tissues of guinea pigs; type: cell-based
[6] = bolus injection through femoral vein catheter, 1.0-200 picomoles per kg
[7] = bolus injections 1.0-200 picomoles per kg

CC[C@H](C)[C@H](NC(=O)[C@H](CCCNC(=N)N)NC(=O)[C@H](Cc1c[nH]cn1)NC(=O)[C@H](CO)NC(=O)[C@@H]1CCCN1C(=O)[C@H](CC(=O)O)NC(=O)[C@H](CC(C)C)NC(=O)[C@H](CC(N)=O)NC(=O)[C@H](CCC(N)=O)NC(=O)[C@H](CC(C)C)NC(=O)[C@H](CC(N)=O)NC(=O)[C@H](CCCCN)NC(=O)[C@@H](NC(=O)[C@@H](NC(=O)[C@H](CO)NC(=O)[C@H](CCSC)NC(=O)[C@H](CCCNC(=N)N)NC(=O)CNC(=O)[C@H](CO)NC(=O)[C@@H]1CCCN1C(=O)[C@H](C)NC(=O)[C@@H](N)CCCCN)[C@@H](C)CC)C(C)C)C(=O)N[C@@H](CO)C(=O)N[C@@H](CC(=O)O)C(=O)N[C@@H](CCCNC(=N)N)C(=O)N[C@@H](CC(=O)O)C(=O)N[C@@H](Cc1ccc(OS(=O)(=O)O)cc1)C(=O)N[C@@H](CCSC)C(=O)NCC(=O)N[C@@H](Cc1c[nH]c2ccccc12)C(=O)N[C@@H](CCSC)C(=O)N[C@@H](CC(=O)O)C(=O)N[C@@H](Cc1ccccc1)C(N)=O [synthetic hCCK-33] (H-KAPSGRMSIVKNLQNLDPSHRISDRD[sY]MGWMDF-NH2)
activity compared with natural swine CCK-33 [1]: comparable with or even higher than
activity relative to synthetic CCK-8 on the molar basis, blood flow in the pancreas capillary vessel [2, 6]: 92%
pancreas blood flow, dose dependence [2, 7]: increased in parallel with the dose
dose giving the highest effect ([3]; bolus injection): 200 picomoles/kg
lowest dose at which the increasing effect could be noted ([3]; bolus injection): 3.125 picomoles/kg
activity relative to synthetic CCK-8 on the molar basis, protein release from pancreas [3, 6]: 92%
protein release from pancreas, dose dependence [3, 7]: increased in parallel with the dose
activity relative to CCK-8 on the molar basis, gastric juice, pepsin release and pancreas secretion [4]: about two to three times more active than the CCK-8
activity relative to CCK-8 on the molar basis, stimulation of pepsinogen secretion [5]: about the same as the CCK-8
